The subject of experiment [1] is IL-10-induced JAK1/TYK2 signal pathway. In words: IL-10-induced JAK1/TYK2 signal pathway STAT3-Luc reporter gene assay in U2OS cells. Format: cell-based, human. The following applies: Homo sapiens, read-out: Half inhibition dose (IC50) on IL-10-induced JAK1/TYK2 signal pathway. In outline:
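Luciferase read-out (560 nm) corrected by GFP signal (Ex485/Em520) gives IL-10 pathway activity, and IC50 is derived from inhibition rates. Cells were U2OS transfected with IL-10R1 plus STAT3-Luc reporter, pretreated 6 h with 0.1–300 nM compound, then stimulated 24 h with IL-10 at 10 ng/mL.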
On the technique in general: Reporter assays use an easily measured gene product as a stand-in for the process of interest.

Experiment [2] relates to IL-2-induced JAK1/JAK3 signal pathway. In words: IL-2-induced proliferation of KHYG-1 cells (JAK1/JAK3 signal). Format: cell-based, human. The following applies: Homo sapiens; KHYG-1 cell proliferation, IL-2 10 ng/mL, 72 hours; read-out: Inhibition activity IC50 on IL-2-induced JAK1/JAK3 signal pathway. In outline:
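Controls were wells lacking both compound and cytokine (0%) and compound-free IL-2 wells (100%). C50 was calculated from inhibition rates across doses.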

The subject of experiment [3] is INF-α-induced pSTAT5 in human PBMC. In words: INF-α-induced pSTAT5 in human PBMC (FACS, CD3 positive cells). Particulars: Homo sapiens, PBMC, IFN-α 30 ng/ml, read-out: Inhibition activity IC50 on INF-α-induced pSTAT5 in human PBMC. Type of experiment: cell-based. The method, then: hPBMC (available from Shanghai AoNeng Biotechnology Co., Ltd.) was inoculated in 96-well plate, added with compound of the present invention (at concentrations of 40 nM and 200 nM), incubated for 60 min (compound in concentrations of 2 nM, 10 nM respectively during the incubation); added with 30 ng/ml of stimulating factor IFN-α (BioLegend) together with anti-CD3 antibody (Biolegend) and then continued to be incubated for 30 min. After the incubation, each well was added with 1 mL of fixing solution (BD Biosciences), the obtained mixture was incubated for 10 min followed by centrifugation, added with 400 μL/well of Perm III (BD Biosciences), followed by further incubation at 4° C. for 30 min. The obtained mixture was added with mouse anti-human pSTAT5 antibody (Alexa Fluor® 647 Conjugate), followed by incubation at room temperature for 40 min. Fluorescence intensity of pSTAT5 in CD3 positive cells was detected by FACS.
Inhibition rate at individual compound concentration was calculated with the following formula:
Inhibition rate=(MFI value(IFN-α-stimulated control)−MI value(2/10 nM compound treated group)/MFI value(IFN-α-stimulated control)[…]
wherein: MFI value meant fluorescence intensity value; IFN-α-stimulated control meant control group which was operated similarly to the experimental groups but no compound of the present invention was added.

Where [4] appears, read: U2OS cells, STAT3-Luc reporter, IL-10 10 ng/mL.
Setting [5] is: U2OS, U2OS cells, STAT3-Luc reporter, IL-10 10 ng/mL.

Like-named read-outs stand apart in the source and are kept apart here.

Take `CCONC(=O)c1cnc(Nc2cc(C)nc(C)n2)cc1Nc1cccc(-c2ncc(C)cn2)c1OC` [Example 238, 6-((2,6-dimethylpyrimidin-4-yl)amino)-N-ethoxy-4-((2-methoxy-3-(5-methylpyrimidin-2-yl)phenyl)amino)nicotinamide]: the IC50 in experiment [1] (setting [4]) was 0.168 nM; in experiment [2] it was > 10000 nM; in experiment [3] it was < 2 nM.
For the molecule `CCONC(=O)c1cnc(Nc2cc(C)nc(C)n2)cc1Nc1cccc(-c2ncccn2)c1OC` [Example 212], the IC50 is 0.271 nM in experiment [1] (U2OS), > 10000 nM in experiment [2] and < 2 nM in experiment [3].
Regarding `CCONC(=O)c1cnc(NC(=O)C2CC2)cc1Nc1cccc(-c2ncc(Cl)cn2)c1OC` [Example 219, 4-((3-(5-chloropyrimidin-2-yl)-2-methoxyphenyl)amino)-6-(cyclopropylcarboxamido)-N-ethoxy nicotinamide], the IC50 in experiment [1] (setting [5]) was 1.09 nM; in experiment [2], > 10000 nM; in experiment [3], < 2 nM.
With `CCONC(=O)c1cnc(Nc2cc(C)nc(C)n2)cc1Nc1cc(F)cc(-c2ncccn2)c1OC` [Example 215, 6-((2,6-dimethylpyrimidin-4-yl)amino)-N-ethoxy-4-((5-fluoro-2-methoxy-3-(pyrimidin-2-yl)phenyl)amino)nicotinamide], the IC50 was 0.102 nM in experiment [1] (setting [5]), > 10000 nM in experiment [2] and < 2 nM in experiment [3].
For `CCONC(=O)c1cnc(Nc2cc(C)nc(C)n2)cc1Nc1ccc(C(F)(F)F)cc1N(C)S(C)(=O)=O` [Example 202, 6-((2,6-dimethylpyrimidin-4-yl)amino)-N-ethoxy-4-((2-(N-methylmethanesulfonamido)-4-(trifluoromethyl)phenyl)amino)nicotinamide], the IC50 in experiment [1] (setting [4]) is 0.412 nM; in experiment [2] it was > 10000 nM; in experiment [3], < 2 nM.

Values taken from patent US20240101548A1, “HYDROXAMATE COMPOUND, PREPARATION METHOD THEREFOR AND APPLICATION THEREOF” (SHENZHEN CHIPSCREEN BIOSCIENCES CO., LTD., priority 2020, published 2024).
